Experimental data as given in ChEMBL document CHEMBL4014333, “Discovery of Small Molecules for Repressing Cap-Independent Translation of Human Vascular Endothelial Growth Factor (hVEGF) as Novel Antitumor Agents” (J Med Chem, 2017).
Active and inactive are the calls of the source. The rule behind the calls is not given here.

Legend:
MCF7 = experiment: Antitumor activity against human MCF7 cells xenografted in nude Balb/c mouse assessed as tumor weight at 1 mg/kg, ip qd for 20 days; assay type: functional
Homo sapiens [1] = organism: Homo sapiens; experiment: Destabilization of human wild type internal ribosome entry site A RNA G-quadruplex assessed as melting temperature at 5 uM by CD spectra method (reference value: 80.9 +/- 0.8 degreeC)
Homo sapiens [2] = organism: Homo sapiens; experiment: Destabilization of human wild type internal ribosome entry site A RNA G-quadruplex expressed in MCF7 cells assessed as down regulation of VEGF-A translation at 1.5 uM after 24 hrs by dual-luciferase reporter gene assay relative to control; assay type: cell-based
Homo sapiens [3] = organism: Homo sapiens; experiment: Destabilization of human 5'-UGAAGAGUGUGAGUAGUA-3' RNA expressed in MCF7 cells assessed as down regulation of VEGF-A translation at up to 0.5 uM after 24 hrs by dual-luciferase reporter gene assay; assay type: cell-based

| Tm (Homo sapiens [1]) | SMILES | Activity (MCF7) | Activity (Homo sapiens [2]) | Activity (Homo sapiens [3]) |
| --- | --- | --- | --- | --- |
|  | COc1cccc2c1C(=O)c1c(O)c3c(c(O)c1C2=O)C[C@@](O)(C(=O)CO)C[C@@H]3O[C@H]1C[C@H](N)[C@H](O)[C@H](C)O1 [DOXORUBICIN] | 0.14 g |  |  |
| > 76 °C | NCCOc1cc(C(=O)Nc2cc(OCCN)c3ccccc3n2)cc(C(=O)Nc2cc(OCCN)c3ccccc3n2)c1 |  | inactive | inactive |
